Square brackets hold non-standard residues; d marks the D form. Peptide text beside a SMILES is read from it. * marks the point of attachment. Lauroyl = CCCCCCCCCCCC(=O)*
Key:
[1] = test system: P. aeruginosa 101885 (MDR/XDR); experiment: microbe, parasite or virus in culture
Procedure: (§1) We evaluated the activity of SPRLPs in combination with fifteen clinically-used antibiotics against P. aeruginosa. Antibiotics tested included fluoroquinolones (moxifloxacin, ciprofloxacin and levofloxacin), aminoglycosides (gentamicin, tobramycin and amikacin), cephalosporins (ceftazidime and cefotaxime), carbapenems (meropenem and doripenem), aztreonam, rifampicin, minocycline, colistin and fosfomycin. The SPRLPs were screened initially at a fixed concentration of 8 μg/mL (5 μM) in combination with antibiotics against wild-type P. aeruginosa PAO1. We assessed potentiation by at least a four-fold absolute MIC reduction of the antibiotic, after which synergism was further validated by a conventional checkerboard assay. A fractional inhibitory concentration (FIC) index of ≤0.5, 0.5<x≤4 or >4 was interpreted as synergistic, indifferent or antagonistic interaction, respectively (31). FIC index was obtained by adding the FIC values of the antibiotic and the SPRLP adjuvant. FIC of antibiotics was calculated by dividing the MIC of the antibiotic in the presence of the adjuvant by the MIC of the antibiotic alone. Similarly, the FIC of adjuvant was calculated via dividing the MIC of the adjuvant in the presence of the antibiotic by the MIC of the adjuvant alone.
(§2) Isolates used in this study were either obtained from the American Type Culture Collection (ATCC), the Canadian National Intensive Care Unit (CAN-ICU) surveillance study (27) or the Canadian Ward Surveillance (CANWARD) study (28). Clinical isolates belonging to the CAN-ICU and CANWARD studies were recovered from patients suffering a presumed infectious disease entering or admitted in a participating medical center across Canada during the time of study. MDR P. aeruginosa strains in this study refer to those that are resistant to aminoglycosides, fluoroquinolones, cephalosporins, and carbapenems while XDR strains are those that are resistant to aminoglycosides, fluoroquinolones, cephalosporins, carbapenems, aztreonam and penicillin+β-lactamase inhibitor combination (39, 40).
(§3) Microbroth dilution susceptibility test following the Clinical and Laboratory Standards Institute (CLSI) guidelines (32) was performed to assess the in vitro antibacterial activity of SPRLPs. Overnight grown bacterial cultures were diluted in saline to achieve a 0.5 McFarland turbidity, followed by 1:50 dilution in Mueller-Hinton broth (MHB) for inoculation to a final concentration of 5×10^5 colony forming units/mL. The assay was done on a 96-well plate to which the agents of interest were 2-fold serially diluted in MHB and incubated with equal volumes of inoculum at 37° C. for 18 hours. MIC was determined as the lowest concentration to inhibit visible bacterial growth in form of turbidity, which was confirmed using EMax Plus microplate reader (Molecular Devices, USA) at a wavelength of 590 nm. The well containing MHB broth with or without bacterial cells was used as positive or negative control, respectively.
(§4) The assay was performed on a 96-well plate, to which the agents of interest was 2-fold serially diluted in working MHB. Prior to serial dilution, SPRLP was added to the working MHB media so that a fixed final concentration of 8 μg/mL (5 μM) SPRLP per well was achieved. To ensure that the assay was working, the MIC determination test of the studied antibiotic (without SPRLP) was included on the same plate. Similar MIC results between the assay comparator and an independent MIC determination test (on a different plate) ensured validity of the synergy test. Overnight grown bacterial cultures were diluted in saline to 0.5 McFarland turbidity, followed by 1:50 dilution in MHB (without SPRLP) and inoculation into each well to a final concentration of approximately 5×10^5 colony forming units/mL. Wells containing only MHB (without SPRLP) with or without bacterial cells were used as positive or negative control, respectively.

[2] = test system: P. aeruginosa 260-97103 (MDR/XDR); experiment: microbe, parasite or virus in culture
Procedure: as §1, §2, §3, §4

[3] = test system: P. aeruginosa 100036 (MDR/XDR); experiment: microbe, parasite or virus in culture; conditions: P. aeruginosa 100036; for MIC (agent alone): antibiotic or lipopeptide alone
Procedure: as §1, §2, §3, §4

[4] = test system: P. aeruginosa 91433 (colistin-resistant, MDR/XDR); experiment: microbe, parasite or virus in culture; conditions: P. aeruginosa 91433 (colistin-resistant); for MIC (agent alone): antibiotic or lipopeptide alone
Procedure: as §1, §2, §3, §4

[5] = test system: E. coli CAN-ICU 61714 (gentamicin-resistant); assay type: cell-based
In short: (§5)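 Antibacterial potency was recorded as MIC. Each isolate was grown in Mueller-Hinton broth against twofold compound dilutions (inoculum 5×10^5 CFU/mL, 37° C., 18 h), and the lowest concentration lacking turbidity was taken, with optical density at 590 nm as confirmation.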

[6] = test system: methicillin-resistant S. epidermidis CAN-ICU 61589 (ceftazidime-resistant); assay type: cell-based; conditions: methicillin-resistant CAN-ICU 61589 (ceftazidime-resistant)
In short: as §5

[7] = test system: K. pneumoniae ATCC 13883; assay type: cell-based
In short: as §5

[8] = test system: E. coli CANWARD-2011 97615 (gentamicin-, tobramycin-, ciprofloxacin-resistant) aac(3′)iia; assay type: cell-based
In short: as §5

[9] = test system: methicillin-resistant S. aureus ATCC 33592; assay type: cell-based
In short: as §5

[10] = test system: P. aeruginosa ATCC 27853; assay type: cell-based
In short: as §5

[11] = test system: E. coli CAN-ICU 63074 (amikacin-intermediate resistant); assay type: cell-based
In short: as §5

[12] = test system: E. faecium ATCC 27270; assay type: cell-based
In short: as §5

[13] = test system: E. coli ATCC 25922; assay type: cell-based
In short: as §5

[14] = test system: P. aeruginosa CAN-ICU 62308 (gentamicin-resistant); assay type: cell-based
In short: as §5

[15] = test system: S. maltophilia CAN-ICU 62584; assay type: cell-based
In short: as §5

[16] = test system: A. baumannii CAN-ICU 63169; assay type: cell-based
In short: as §5

[17] = P. aeruginosa 101885, degree of minocycline potentiation in the presence of 8 μg/mL (5 μM) lipopeptide
[18] = P. aeruginosa 101885, degree of rifampicin potentiation in the presence of 8 μg/mL (5 μM) lipopeptide
[19] = P. aeruginosa 260-97103, degree of minocycline potentiation in the presence of 8 μg/mL (5 μM) lipopeptide
[20] = P. aeruginosa 260-97103, degree of rifampicin potentiation in the presence of 8 μg/mL (5 μM) lipopeptide
[21] = degree of minocycline potentiation in the presence of 8 μg/mL (5 μM) lipopeptide
[22] = degree of rifampicin potentiation in the presence of 8 μg/mL (5 μM) lipopeptide
[23] = MIC of minocycline in the presence of 8 μg/mL (5 μM) lipopeptide
[24] = MIC of rifampicin in the presence of 8 μg/mL (5 μM) lipopeptide

`CCCCCCCCCCCC(=O)N1CCC[C@H]1C(=O)N[C@@H](CCCNC(=N)N)C(=O)N1CCC[C@H]1C(=O)N[C@@H](CCCNC(=N)N)C(=O)N1CCC[C@H]1C(=O)N[C@@H](CCCNC(=N)N)C(=O)N1CCC[C@H]1C(N)=O` [Compound C12-PRP, CH3(CH2)10CO-PRPRPRP-NH2] (Lauroyl-PRPRPRP-NH2) was tested, and the “MIC (agent alone)” value ([1]; 101885 (MDR/XDR)) was 64 µg/mL, the Potentiation [1, 17] was 4-fold and the Potentiation [1, 18] was 8-fold. For the same molecule, the FIC index ([1]; P. aeruginosa 101885, lipopeptide in combination with minocycline (MIN)) was 0.37, the FIC index ([1]; P. aeruginosa 101885, lipopeptide in combination with rifampicin (RMP)) was 0.25 and the “MIC (agent alone)” value ([2]; 260-97103 (MDR/XDR)) was 128 µg/mL. The Potentiation [2, 19] was 16-fold, the Potentiation [2, 20] was 8-fold and the FIC index ([2]; P. aeruginosa 260-97103, lipopeptide in combination with minocycline (MIN)) was 0.12. For the same molecule, the FIC index ([2]; P. aeruginosa 260-97103, lipopeptide in combination with rifampicin (RMP)) was 0.16, the “MIC (agent alone)” value [3] was >128 µg/mL and the Potentiation [3, 21] was 4-fold. For the same molecule, the Potentiation [3, 22] was 16-fold, the “MIC (agent alone)” value [4] was >128 µg/mL and the Potentiation [4, 21] was 4-fold. For the same molecule, the Potentiation [4, 22] was 16-fold, the MIC [5] was >128 µg/mL and the MIC [6] was 128 µg/mL. For the same molecule, the MIC [7] was >128 µg/mL, the MIC [8] was >128 µg/mL and the MIC [9] was >128 µg/mL. For the same molecule, the MIC [10] was >128 µg/mL, the MIC [11] was >128 µg/mL and the MIC [12] was 128 µg/mL. For the same molecule, the MIC [13] was >128 µg/mL, the MIC [14] was >128 µg/mL and the MIC [15] was >128 µg/mL. The MIC [16] was >128 µg/mL.
In the case of `CCCCCCCCCCCC(=O)N1CCC[C@@H]1C(=O)N[C@H](CCCNC(=N)N)C(=O)N1CCC[C@@H]1C(=O)N[C@H](CCCNC(=N)N)C(=O)N1CCC[C@@H]1C(=O)N[C@H](CCCNC(=N)N)C(=O)N1CCC[C@@H]1C(N)=O` [C12-prp] (Lauroyl-[dP][dR][dP][dR][dP][dR][dP]-NH2), the “Absolute MIC MIN” value ([1]; P. aeruginosa 101885, MIC of minocycline in the presence of 8 μg/mL (5 μM) lipopeptide) is reported as 8 µg/mL, the “Absolute MIC RMP” value ([1]; P. aeruginosa 101885, MIC of rifampicin in the presence of 8 μg/mL (5 μM) lipopeptide) is reported as 4 µg/mL and the “MIC (agent alone)” value ([1]; P. aeruginosa 101885, antibiotic or lipopeptide alone) is reported as >128 µg/mL. The Potentiation [1, 17] was 2-fold, the Potentiation [1, 18] was 4-fold and the “Absolute MIC MIN” value ([2]; P. aeruginosa 260-97103, MIC of minocycline in the presence of 8 μg/mL (5 μM) lipopeptide) was 2 µg/mL. For the same molecule, the “Absolute MIC RMP” value ([2]; P. aeruginosa 260-97103, MIC of rifampicin in the presence of 8 μg/mL (5 μM) lipopeptide) was 4 µg/mL, the “MIC (agent alone)” value ([2]; P. aeruginosa 260-97103, antibiotic or lipopeptide alone) was >128 µg/mL and the Potentiation [2, 19] was 8-fold. The Potentiation [2, 20] was 4-fold, the “Absolute MIC MIN” value [3, 23] was 8 µg/mL and the “Absolute MIC RMP” value [3, 24] was 4 µg/mL. For the same molecule, the “MIC (agent alone)” value [3] was >128 µg/mL, the Potentiation [3, 21] was 2-fold and the Potentiation [3, 22] was 4-fold. For the same molecule, the “Absolute MIC MIN” value [4, 23] was 4 µg/mL, the “Absolute MIC RMP” value [4, 24] was 2 µg/mL and the “MIC (agent alone)” value [4] was >128 µg/mL. For the same molecule, the Potentiation [4, 21] was 8-fold and the Potentiation [4, 22] was 8-fold.

Source: patent publication US20200407398A1, “Short Proline-Rich Lipopeptide Potentiates Minocycline and Rifampicin Against Multidrug-and Extensively Drug-Resistant Pseudomonas Aeruginosa” (priority 2018, published 2020)
